This note sets out measurements from patent US20250270209A1 (INTERLINE THERAPEUTICS, INC., priority 2022, published 2025).

Each structure is given as a SMILES string.

In general, IC50 refers to the point on the concentration scale where inhibition reaches its midpoint.

One assay concerns the target LRRK2 wild type enzyme (Homo sapiens, UniProt Q5S007). Briefly: Biochemical Assay: LRRK2 TR-FRET (LanthaScreen) kinase assay with LRRKtide substrate. Conditions: LRRK2 Inhibition, Table 8. Summed up:
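Human wild-type LRRK2 (3 nM) preincubated 15 min with compound (11-point, 3-fold, top 10 μM), then reacted 120 min at 23 °C with 400 nM LRRKtide and 25 μM ATP, pH 8.0. Stopped with EDTA; Tb-anti-pLRRKtide TR-FRET read after 30 min.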

The target in assay [1] is T1, wild type LRRK2 overexpressed in recombinant HEK-293T cells (Homo sapiens, UniProt Q5S007).
T1 construct: host or cells: HEK293T (transient transfection with pCMV-LRRK2 WT plasmid)
T1 sequence (Q5S007 whole entry): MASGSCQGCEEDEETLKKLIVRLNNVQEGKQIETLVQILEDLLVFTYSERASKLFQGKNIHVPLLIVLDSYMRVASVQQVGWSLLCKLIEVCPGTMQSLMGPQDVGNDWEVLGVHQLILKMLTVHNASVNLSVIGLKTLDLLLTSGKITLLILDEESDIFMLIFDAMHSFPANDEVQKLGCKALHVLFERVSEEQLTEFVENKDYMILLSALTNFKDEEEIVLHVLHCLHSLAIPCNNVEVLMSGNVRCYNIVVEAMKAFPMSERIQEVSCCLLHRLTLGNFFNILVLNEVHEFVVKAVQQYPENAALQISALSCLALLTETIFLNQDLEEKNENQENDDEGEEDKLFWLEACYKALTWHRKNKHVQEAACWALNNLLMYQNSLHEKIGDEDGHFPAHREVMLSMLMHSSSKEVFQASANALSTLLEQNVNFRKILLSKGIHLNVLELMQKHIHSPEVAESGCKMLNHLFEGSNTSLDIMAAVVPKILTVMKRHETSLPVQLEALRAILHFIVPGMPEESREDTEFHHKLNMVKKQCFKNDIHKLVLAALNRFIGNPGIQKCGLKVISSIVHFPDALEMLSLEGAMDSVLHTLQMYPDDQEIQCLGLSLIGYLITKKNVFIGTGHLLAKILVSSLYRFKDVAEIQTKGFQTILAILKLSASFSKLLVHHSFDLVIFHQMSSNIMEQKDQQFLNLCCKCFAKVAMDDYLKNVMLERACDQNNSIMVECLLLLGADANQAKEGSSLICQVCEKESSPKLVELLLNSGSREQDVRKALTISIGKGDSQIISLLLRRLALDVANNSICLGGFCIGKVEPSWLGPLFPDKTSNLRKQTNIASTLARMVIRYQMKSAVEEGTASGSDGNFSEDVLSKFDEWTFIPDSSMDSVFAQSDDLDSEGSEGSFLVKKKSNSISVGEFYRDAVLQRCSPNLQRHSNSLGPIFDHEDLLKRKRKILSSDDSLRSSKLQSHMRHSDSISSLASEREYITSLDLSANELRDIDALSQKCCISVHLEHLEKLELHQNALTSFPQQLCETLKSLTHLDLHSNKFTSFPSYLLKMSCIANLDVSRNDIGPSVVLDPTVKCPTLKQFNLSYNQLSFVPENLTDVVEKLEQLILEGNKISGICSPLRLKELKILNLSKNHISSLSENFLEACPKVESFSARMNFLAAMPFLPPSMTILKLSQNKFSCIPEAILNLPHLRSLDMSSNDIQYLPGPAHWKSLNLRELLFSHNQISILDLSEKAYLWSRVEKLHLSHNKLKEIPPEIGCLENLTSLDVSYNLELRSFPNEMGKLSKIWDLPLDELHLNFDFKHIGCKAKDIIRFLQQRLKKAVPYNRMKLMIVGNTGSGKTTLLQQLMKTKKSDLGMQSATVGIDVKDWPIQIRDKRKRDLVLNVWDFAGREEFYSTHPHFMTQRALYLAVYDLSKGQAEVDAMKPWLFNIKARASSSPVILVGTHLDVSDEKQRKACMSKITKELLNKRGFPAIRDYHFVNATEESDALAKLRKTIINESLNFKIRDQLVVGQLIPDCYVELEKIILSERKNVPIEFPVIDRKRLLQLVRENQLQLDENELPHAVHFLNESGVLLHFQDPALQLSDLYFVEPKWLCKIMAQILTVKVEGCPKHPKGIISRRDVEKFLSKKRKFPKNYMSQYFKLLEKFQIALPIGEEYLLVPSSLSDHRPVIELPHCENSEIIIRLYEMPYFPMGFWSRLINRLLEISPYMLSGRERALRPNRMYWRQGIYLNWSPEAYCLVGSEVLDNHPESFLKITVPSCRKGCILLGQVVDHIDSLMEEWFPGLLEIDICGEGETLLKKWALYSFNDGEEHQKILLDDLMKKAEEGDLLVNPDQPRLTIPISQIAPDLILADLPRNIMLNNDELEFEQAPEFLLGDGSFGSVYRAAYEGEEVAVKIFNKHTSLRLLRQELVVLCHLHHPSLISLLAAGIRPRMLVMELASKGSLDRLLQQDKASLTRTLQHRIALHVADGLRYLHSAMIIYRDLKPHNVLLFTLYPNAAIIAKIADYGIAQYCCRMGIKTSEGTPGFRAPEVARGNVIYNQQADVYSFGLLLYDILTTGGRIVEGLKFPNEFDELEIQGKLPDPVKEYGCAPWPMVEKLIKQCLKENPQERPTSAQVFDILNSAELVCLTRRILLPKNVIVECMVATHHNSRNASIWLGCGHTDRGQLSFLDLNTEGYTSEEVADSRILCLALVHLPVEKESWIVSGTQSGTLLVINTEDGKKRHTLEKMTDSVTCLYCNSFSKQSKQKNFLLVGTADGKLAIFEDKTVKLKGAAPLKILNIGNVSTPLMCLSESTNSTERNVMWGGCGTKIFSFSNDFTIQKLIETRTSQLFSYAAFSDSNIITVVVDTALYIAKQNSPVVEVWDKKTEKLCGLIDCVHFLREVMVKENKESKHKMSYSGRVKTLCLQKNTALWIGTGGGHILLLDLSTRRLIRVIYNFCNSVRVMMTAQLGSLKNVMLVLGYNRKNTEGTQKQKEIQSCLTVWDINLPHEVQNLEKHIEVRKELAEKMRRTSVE
Briefly: pS935 LRRK2 Cell Assay (HTRF, phospho-LRRK2 Ser935). The class given is cell-based. The settings on record: LRRK2 Inhibition, Table 8, 2 hours compound incubation. A digest of the protocol: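 HEK-293T cells transiently transfected with wild-type LRRK2 for 24 h, plated overnight, then treated 2 h at 37° C with compound (top 10 μM, 3-fold, 9 doses, duplicates, 0.2% DMSO). Lysates probed overnight at 23° C by sandwich HTRF for pSer935; 665/615 nm ratio read.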

LRRK2 wild type enzyme, sequence (Q5S007 whole entry): as above

For the molecule `CN1CC(n2c(C3CC(=O)N(CC4CC4)C3)nc3cnc4ccc(C#N)cc4c32)CCC1=O` (single isomer, unassigned) [Compound 140], the values for the IC50 (against LRRK2 wild type enzyme; in assay [1]) were 42.1 nM and over 10000 nM, respectively.

Regarding `C[C@@H]1C[C@H](n2c(C3CC(=O)N([C@H](C)C4CC4)C3)nc3cnc4ccc(C#N)cc4c32)CCO1` (stereo partly drawn) [Compound 34, 2-{1-[(1R)-1-cyclopropylethyl]-5-oxopyrrolidin-3-yl}-1-[(2R,4R)-2-methyloxan-4-yl]-1H-imidazo[4,5-c]quinoline-8-carbonitrile], the IC50 against LRRK2 wild type enzyme is 4.22 nM; in assay [1] it was 273 nM.

As to `C[C@@H]1C[C@H](n2c(CC(=O)Nc3ncccn3)nc3cnc4ccc(C#N)cc4c32)CCO1` [Compound 178, 2-{8-cyano-1-[(2R,4R)-2-methyloxan-4-yl]-1H-imidazo[4,5-c]quinolin-2-yl}-N-(pyrimidin-2-yl)acetamide], the results for the IC50 (against LRRK2 wild type enzyme; in assay [1]) were 0.34 nM and 3.92 nM, respectively.

With `COCCn1ccc(NC(=O)Cc2nc3cnc4ccc(C#N)cc4c3n2[C@@H]2CCO[C@H](C)C2)n1` [Compound 174, 2-{8-cyano-1-[(2R,4R)-2-methyloxan-4-yl]-1H-imidazo[4,5-c]quinolin-2-yl}-N-[1-(2-methoxyethyl)-1H-pyrazol-3-yl]acetamide], the half-maximal inhibitory concentration (IC50) was 0.316 nM on LRRK2 wild type enzyme and 5.35 nM in assay [1].

For `C[C@@H]1C[C@H](n2c(C3CCN(CC4CC4)C(=O)C3)nc3cnc4ccc(C#N)cc4c32)CCO1` (stereo partly drawn) [Compound 49, 2-[1-(cyclopropylmethyl)-2-oxopiperidin-4-yl]-1-[(2R,4R)-2-methyloxan-4-yl]-1H-imidazo[4,5-c]quinoline-8-carbonitrile], the half-inhibitory concentration (IC50) worked out at 15.3 nM on LRRK2 wild type enzyme and 871 nM in assay [1].

`C[C@@H]1C[C@H](n2c(CNC(=O)CC3CC3)nc3cnc4ccc(C#N)cc4c32)CCO1` [Compound 18, N-({8-cyano-1-[(2R,4R)-2-methyloxan-4-yl]-1H-imidazo[4,5-c]quinolin-2-yl}methyl)-2-cyclopropylacetamide]: the IC50 was determined as 2.58 nM against LRRK2 wild type enzyme and 182 nM in assay [1].

On to `C[C@@H]1C[C@H](n2c(C3CCN(S(C)(=O)=O)CC3)nc3cnc4ccc(C#N)cc4c32)CCO1` [Compound 122, 2-(1-methanesulfonylpiperidin-4-yl)-1-[(2R,4R)-2-methyloxan-4-yl]-1H-imidazo[4,5-c]quinoline-8-carbonitrile], for which the half-inhibitory concentration (IC50) at LRRK2 wild type enzyme amounted to 2.99 nM; in assay [1], 546 nM.

`COc1ccncc1NC(=O)Cc1nc2cnc3ccc(C#N)cc3c2n1[C@@H]1CCO[C@H](C)C1` [Compound 250, N-(4-methoxy-3-pyridyl){3-[(2R,4R)-2-methyltetrahydro-2H-pyran-4-yl]-12-cyano-3,5,8-triazatricyclo[7.4.0.0^2,6]trideca-1(9),2(6),4,7,10,12-hexaen-4-yl}acetamide]: the values for the concentration for half-maximal inhibition (IC50) (against LRRK2 wild type enzyme; in assay [1]) were 0.664 nM and 6.01 nM, respectively.

As for `COc1c(NC(=O)Cc2nc3cnc4ccc(C#N)cc4c3n2[C@@H]2CCO[C@H](C)C2)cnn1C` [Compound 224, N-(5-methoxy-1-methyl-4-pyrazolyl){3-[(2R,4R)-2-methyltetrahydro-2H-pyran-4-yl]-12-cyano-3,5,8-triazatricyclo[7.4.0.0^2,6]trideca-1,4,6,8,10,12-hexaen-4-yl}acetamide], the figures for the concentration for half-maximal inhibition (IC50) (against LRRK2 wild type enzyme; in assay [1]) were 1.42 nM and 87.9 nM, respectively.

In the case of `C[C@@H]1C[C@H](n2c(CC(=O)Nc3cccnc3F)nc3cnc4ccc(C#N)cc4c32)CCO1` [Compound 317, N-(2-fluoro-3-pyridyl){3-[(2R,4R)-2-methyltetrahydro-2H-pyran-4-yl]-12-cyano-3,5,8-triazatricyclo[7.4.0.0^2,6]trideca-1(9),2(6),4,7,10,12-hexaen-4-yl}acetamide], the concentration for half-maximal inhibition (IC50) against LRRK2 wild type enzyme amounted to 0.496 nM; in assay [1], 4.03 nM.

For `COc1ccc(NC(=O)Cc2nc3cnc4ccc(C#N)cc4c3n2[C@@H]2CCO[C@H](C)C2)cn1` [Compound 298, N-(6-methoxy-3-pyridyl){3-[(2R,4R)-2-methyltetrahydro-2H-pyran-4-yl]-12-cyano-3,5,8-triazatricyclo[7.4.0.0^2,6]trideca-1,4,6,8,10,12-hexaen-4-yl}acetamide], the IC50 against LRRK2 wild type enzyme was 0.346 nM; in assay [1], 5.52 nM.

On to `C[C@@H]1C[C@H](n2c(CC(=O)NC[C@@H]3CCOC3)nc3cnc4ccc(C#N)cc4c32)CCO1` [Compound 173, 2-{8-cyano-1-[(2R,4R)-2-methyloxan-4-yl]-1H-imidazo[4,5-c]quinolin-2-yl}-N-{[(3S)-oxolan-3-yl]methyl}acetamide], for which the IC50 was determined as 0.413 nM against LRRK2 wild type enzyme and 38.1 nM in assay [1].

Turning to `C[C@@H]1C[C@H](n2c(CC(=O)Nc3cnccc3C#N)nc3cnc4ccc(C#N)cc4c32)CCO1` [Compound 271, N-(4-cyano-3-pyridyl){3-[(2R,4R)-2-methyltetrahydro-2H-pyran-4-yl]-12-cyano-3,5,8-triazatricyclo[7.4.0.0^2,6]trideca-1,4,6,8,10,12-hexaen-4-yl}acetamide], the half-inhibitory concentration (IC50) was 0.643 nM against LRRK2 wild type enzyme and 8.43 nM in assay [1].

As to `C[C@@H]1C[C@H](n2c(CC(=O)Nc3ncc(C4CC4)cn3)nc3cnc4ccc(C#N)cc4c32)CCO1` [Compound 344, N-(5-cyclopropyl-2-pyrimidinyl){3-[(2R)-2-methyltetrahydro-2H-pyran-4-yl]-12-cyano-3,5,8-triazatricyclo[7.4.0.0^2,6]trideca-1(9),2(6),4,7,10,12-hexaen-4-yl}acetamide], the IC50 came out at 0.453 nM against LRRK2 wild type enzyme and 4.11 nM in assay [1].

As for `C[C@@H]1C[C@H](n2c(CC(=O)NC3CCCC3)nc3cnc4ccc(C#N)cc4c32)CCO1` [Compound 336, N-cyclopentyl{3-[(2R,4R)-2-methyltetrahydro-2H-pyran-4-yl]-12-cyano-3,5,8-triazatricyclo[7.4.0.0^2,6]trideca-1(9),2(6),4,7,10,12-hexaen-4-yl}acetamide], the half-inhibitory concentration (IC50) on LRRK2 wild type enzyme came to 0.732 nM; in assay [1] it was 10.2 nM.

Take `C[C@@H]1C[C@H](n2c(CC(=O)NC3CC3F)nc3cnc4ccc(C#N)cc4c32)CCO1` (stereo in doubt) [Compound 245, N-[(1R,2R)-2-fluorocyclopropyl]{3-[(2R,4R)-2-methyltetrahydro-2H-pyran-4-yl]-12-cyano-3,5,8-triazatricyclo[7.4.0.0^2,6]trideca-1(13),2(6),4,7,9,11-hexaen-4-yl}acetamide]: the concentration for half-maximal inhibition (IC50) against LRRK2 wild type enzyme amounted to 0.947 nM; in assay [1], 71 nM.

Take `Cc1ncccc1NC(=O)Cc1nc2cnc3ccc(C#N)cc3c2n1[C@@H]1CCO[C@H](C)C1` [Compound 316, N-(2-methyl-3-pyridyl){3-[(2R,4R)-2-methyltetrahydro-2H-pyran-4-yl]-12-cyano-3,5,8-triazatricyclo[7.4.0.0^2,6]trideca-1(9),2(6),4,7,10,12-hexaen-4-yl}acetamide]: the values for the concentration for half-maximal inhibition (IC50) (at LRRK2 wild type enzyme; in assay [1]) were 0.527 nM and 6.81 nM, respectively.

Turning to `COCC(C)(C)CNC(=O)Cc1nc2cnc3ccc(C#N)cc3c2n1[C@@H]1CCO[C@H](C)C1` [Compound 266, N-(3-methoxy-2,2-dimethylpropyl){3-[(2R,4R)-2-methyltetrahydro-2H-pyran-4-yl]-12-cyano-3,5,8-triazatricyclo[7.4.0.0^2,6]trideca-1,4,6,8,10,12-hexaen-4-yl}acetamide], the IC50 against LRRK2 wild type enzyme was found to be 0.521 nM; in assay [1], 8 nM.

On to `C[C@@H]1C[C@H](n2c(CC(=O)Nc3cc(C4CC4)on3)nc3cnc4ccc(C#N)cc4c32)CCO1` [Compound 359, N-(5-cyclopropyl-3-isoxazolyl){3-[(2R,4R)-2-methyltetrahydro-2H-pyran-4-yl]-12-cyano-3,5,8-triazatricyclo[7.4.0.0^2,6]trideca-1(9),2(6),4,7,10,12-hexaen-4-yl}acetamide], for which the values for the IC50 (against LRRK2 wild type enzyme; in assay [1]) were 0.525 nM and 4.76 nM, respectively.

For `Cc1ncnc(C)c1NC(=O)Cc1nc2cnc3ccc(Cl)cc3c2n1[C@@H]1CCO[C@H](C)C1` [Compound 207, N-(4,6-dimethyl-5-pyrimidinyl){3-[(2R,4R)-2-methyltetrahydro-2H-pyran-4-yl]-12-chloro-3,5,8-triazatricyclo[7.4.0.0^2,6]trideca-1,4,6,8,10,12-hexaen-4-yl}acetamide], the IC50 amounted to 0.333 nM on LRRK2 wild type enzyme and 7.53 nM in assay [1].

In the case of `Cc1nn(C)cc1NC(=O)Cc1nc2cnc3ccc(C#N)cc3c2n1[C@@H]1CCO[C@H](C)C1` [Compound 231, N-(1-methyl-3-methyl-4-pyrazolyl){3-[(2R,4R)-2-methyltetrahydro-2H-pyran-4-yl]-12-cyano-3,5,8-triazatricyclo[7.4.0.0^2,6]trideca-1,4,6,8,10,12-hexaen-4-yl}acetamide], the IC50 against LRRK2 wild type enzyme was 0.621 nM; in assay [1] it was 13.6 nM.

As for `C[C@@H]1C[C@H](n2c(CNC(=O)c3cnn(C)c3)nc3cnc4ccc(C#N)cc4c32)CCO1` [Compound 20, N-({8-cyano-1-[(2R,4R)-2-methyloxan-4-yl]-1H-imidazo[4,5-c]quinolin-2-yl}methyl)-1-methyl-1H-pyrazole-4-carboxamide], the IC50 on LRRK2 wild type enzyme came to 1.83 nM; in assay [1], 224 nM.

For `C[C@@H]1C[C@H](n2c([C@H]3CN(CC4CC4)C(=O)O3)nc3cnc4ccc(C#N)cc4c32)CCO1` [Compound 36, 2-[(5R)-3-(cyclopropylmethyl)-2-oxo-1,3-oxazolidin-5-yl]-1-[(2R,4R)-2-methyloxan-4-yl]-1H-imidazo[4,5-c]quinoline-8-carbonitrile], the figures for the IC50 (against LRRK2 wild type enzyme; in assay [1]) were 1.16 nM and 63.8 nM, respectively.

`C[C@@H]1C[C@H](n2c(C3CC(=O)N(C4COC4)C3)nc3cnc4ccc(C#N)cc4c32)CCO1` (stereo partly drawn) [Compound 46, 1-[(2R,4R)-2-methyloxan-4-yl]-2-[1-(oxetan-3-yl)-5-oxopyrrolidin-3-yl]-1H-imidazo[4,5-c]quinoline-8-carbonitrile]: the results for the half-inhibitory concentration (IC50) (on LRRK2 wild type enzyme; in assay [1]) were 5.91 nM and 1330 nM, respectively.
